According to patent publication US12083111B2, “Use of hexokinase 2/mitochondria-detaching compounds for activating immune responses” (Vidac Pharma Ltd., priority 2016, dated 2024):

Legend:
[1] = test system: primary Balb/C mouse splenocytes (CD8+ T cells); assay: Activated primary splenocytes: FACS for CD44, CD62L and live cells; format: cell-based
Description: FIGS. 7A-F. Formula C administration shifts effector CD8+ T cells to central memory cells. Primary Balb/C mouse splenocytes were grown in culture and activated by anti-CD3e and anti CD28 antibodies to shift them towards CD8+/CD4+ phenotype. Cells were then treated with Formula C (FIG. 7E), 2-DG (2-deoxyglucose, positive control) (FIG. 7C), or vehicle (FIG. 7B, FIG. 7D) for 24 hours followed by FACS analysis for CD44 and CD62L.
Spleens from the 2 BALB/C female mice (8.5 weeks old) were injected with cold PBS in a […] to obtain cell suspension, using a 27 g needle. The spleens were then crushed using the back of a 10 ml syringe. The suspension was passed through a 21 g needle and filtered using a 70 um cells strainer. The plate was washed once with 10 ml PBS and the solution was filtered as well. Cells were centrifuged for 10 min at 1200 rpm, 4° C. The pellet was broken on the grill and re-suspended in 10 ml AKC X1 lysis buffer (1:10 dilution of X10 stock in Ultra-Pure Water). After 5 min on ice, PBS was added to a final volume of 50 ml, and cells were centrifuged for 10 min at 1200 rpm, 4° C. Pellet was re-suspended in 10 ml PBS and washed twice. After washing, pellet was re-suspended in 20 ml DCs medium and passed through a 40 μm cell strainer. Cells were suspended to 3×10^6 ml with DC medium and supplemented with 1:1000 (100 Units/ml) hIL-2 and 1:1000 (1 ug/ml) anti-CD28.
The cells were seeded 1 ml/well in a 24-well plate precoated with 5 μg/ml 250 μl/well of anti-CD3e and carefully washed twice with 0.5 ml PBS (−/−), cells were added on the side of the wells to avoid washing away the antibody.
Splenocytes were plated at 10^6 cells/well in a 24-well plate coated with 5 μg/ml anti-CD3e with soluble anti CD28 2 μg/ml and IL-2 100 units/ml. […]
On the following day, cells were stained with: ghost dye 1 ul/sample (live/dead), and the following antibodies: CD62L, CD44, CD3, CD4, CD8 and analyzed by fluorescence-activated cell sorting (FACS).

[2] = test system: B16-F10 melanoma cells; assay: Topical treatment in the mouse B16-F10 melanoma model: tumor volume; format: in vivo; settings: 50% v/v in olive oil
Description: Mouse melanoma (B16-F10) cells were used. Mouse B16-F10 melanoma cells were maintained in DMEM. Media was supplemented with 10% heat-inactivated FCS, penicillin (100 U/ml), streptomycin (100 μg/ml), Sodium pyruvate (2 mM), and L-glutamine (4 mM). Confluent cultures were washed with PBS, detached with trypsin (0.25%), centrifuged, and subcultured in 96-well microtiter test plates.
(§1) Female C57Bl/6 mice at 8 weeks of age were purchased from Harlan, Jerusalem, Israel. The animals were housed (6 or 7/cage) under controlled conditions (temperature, light, humidity) and given food and water ad libitum. After 14 days of acclimatization, the animals were inoculated with 0.25*10^6 B16-F10 melanoma cells/mouse in 30 μl PBS under the skin of the right ear of each mouse.
(§2) The mice were inoculated with B16-F10 melanoma cells and divided randomly into […] (9 mice each): a) B16-F10 inoculated, untreated; and b) B16-F10 inoculated, Formula C (50% v/v in olive oil) treated
(§3) The treatment was initiated when the tumors reached the target volume of approximately 1 mm^3. Drug was topically administered to the area of the tumor daily for 18 days.

[3] = test system: B16-F10 melanoma mice; assay: Ear inflammation score in the mouse B16-F10 melanoma model; format: in vivo; settings: scale 0-4, topical
Description: as §1, §2, §3
Inflammation was graded on a scale of 0-4 as: 0 (absence of inflammation), 1 (redness), 2 (tissue inflammation), 3 (pronounced tissue inflammation), and 4 (damage to the ear).

[4] = test system: skin of UVB-exposed SKH-1 mice; assay: UVB-exposed SKH-1 mouse AK/cSCC model: histology and IHC of immune cells in skin; format: in vivo
Description: The formulation ingredients for vehicle, 2.5%, and 5% Formula C ointment consisted of: 32% Gelucire44/14® (Gattefossé, Saint-Priest, France), and 68% combined Labrasol® (Gattefossé, Saint-Priest, France) with corresponding amount of Formula C (w/w). New ointments were prepared every 2 weeks. The 40% topical solution was prepared just prior to use by mixing (w/w) 60% propylene glycol (Sigma, St. Louis, MO, USA) with 40% Formula C.
UVB-induced skin damage was adopted from previous publications. Forty-eight SKH-1 hairless female mice were chronically exposed to 1.25 times the Minimal Erythemal Dose (MED) of UVB radiation. Lamp VL-6.M was used, irradiating at 312 nm with an intensity of 0.89 mW/cm2 (validated on Day 44) at a distance of 15 cm. Determination of UVB irradiation Minimal Erythemal Dose (MED) was performed prior to the beginning of the study. Animals were UVB irradiated for different duration (starting at 30 sec) and the presence of erythema was recorded 24 and 48 hours later. 1.25 times the MED of UVB irradiation was established to be equal to an exposure time of 5 min. Mice were UVB irradiated for 4-5 min at each irradiation session during the 16 weeks of pre-treatment disease induction. Prior to every irradiation session, the lamp was turned on for 5 min to ensure it reaches its maximal intensity. The irradiation schedule was five times a week for two weeks, one week off, and then three times a week through week 16. By that time, more than 60% of the animals had developed at least one SCC lesion. Three days after the final irradiation dose, the mice were randomly assigned to 1 of 4 treatment groups (N=12 mice/group), with similar tumor burden distribution between groups, and a 50-day treatment phase started. The 6 cm^2 (2×3 cm) treatment area was marked on the back of the mice with a black eight points rectangle tattoo. Five spare mice with the highest tumor burden were excluded from the main study. Treatment groups included: vehicle, 2.5% or 5% Formula C ointment, 50 μl of which was applied once-daily for 50 days, or 50 μl of 40% Formula C topical solution applied once-daily for the first 5 days of every three-week cycle (total of three treatment cycles). Following administration, each animal was placed in individual cage without bedding for 1.5 hours, until the ointment was absorbed.
Histopathological analysis and IHC was performed according to standard protocols. Primary antibodies used: Rabbit anti-CD3 (SP7), rabbit anti-F4/80 (SB-M3072, SB-M4152, Nordic Biosite, Täby, Sweden), mouse anti-Langerin/CD207 (DDX0361, Dendritics, Lyon, France). A polymer system was used as a secondary antibody (KDB-10046 and KDB-10007, Nordic Biosite, Täby, Sweden). Semi-quantitative analysis was done in a blinded manner by a single experienced pathologist scoring ×40 high power fields, 7 different fields per slide.
Statistical analysis was carried out using Graphpad Prism version 5.03 (Graphpad Software, San Diego, CA).

[5] = test system: THP-1 human monocytes differentiated to macrophages; assay: IL-1β secretion from LPS-stimulated THP-1-derived macrophages (ELISA); format: cell-based; settings: PMA-differentiated, ELISA of culture medium
Description: FIG. 4. Formula C stimulates IL-1β secretion in activated human macrophages in vitro. THP-1 human monocytes were differentiated to mature macrophages and stimulated with LPS (Lipopolysaccharide) followed by Formula C treatment. Secreted IL-1β was analyzed in the culture medium by ELISA.
The human monocyte cell line, THP-1, was grown in 10% FCS in RPMI medium. Cells were plated in 24 well plate, 5*10^6 cells/well and were differentiated to macrophages in the presence of 0.5 uM PMA (phorbol 12-myristate 13-acetate) for 24 hr. Media was replaced to contain LPS (10 ug/mL), 24 hr stimulation. ATP was added for 2 hours. Supernatants were collected and assayed by ELISA for the presence of IL-1β.

[6] = test system: mouse bone marrow-derived macrophages (BMDM); assay: IL-1β secretion and viability in primary bone marrow-derived macrophages; format: cell-based; settings: BALB/C or C57BL BMDM
Description: BALB/C mouse bone marrow-derived macrophages (BMDM) or C57BL mouse bone marrow-derived macrophages were seeded at 3×10^4 cells/well in 96 well plates. The following day, cells were stimulated with interferon-gamma (IFNγ) overnight 50 ng/ml. Then Ultra-pure LPS (100 ng/ml) was added for 4 hours, followed by compound treatment for overnight, except for ATP (all compounds were added on top); ATP for 40 min. ELISA was performed on supernatants for mouse IL-1β detection. ATP and 2-DG were used as positive controls. No signal without IFN-γ even when seeded at 100,000 cells per well.

[7] = test system: CT26 mouse colorectal cancer cells; assay: CT26 syngeneic colorectal cancer model: tumor volume; format: in vivo; settings: Balb/C mice, SC with esterase-inhibitor BNPP (IP)
Description: (§4) Colorectal cancer was induced in Balb/C mice using CT26 mouse colorectal cancer cells. Formula C was administered SC with esterase-inhibitor BNPP (IP).

[8] = test system: macrophages in CT26 tumors; assay: FACS of CT26 tumors for macrophage markers MHCII and CD206 (M2 to M1 shift); format: in vivo, mouse; settings: 150 mg/kg, day 20
Description: (§5) FIG. 6B. Formula C administration shifts macrophages in vivo from pro-tumor (M2) macrophages to antitumor (M1) macrophages. CT26 tumors from Formula C or vehicle-treated Balb/C mice with CT26 mouse colorectal cancer was analyzed for MHCII marker by FACS. Dark color: Vehicle treated CT26 tumors from Balb/C mice (day 20). Light color: Formula C (150 mg/kg) treated CT26 tumors from Balb/C mice (day 20).
as §5, with “6C.” for “6B.”, “CD206.” for “MHCII marker by FACS.”
as §4
Pro-tumor M2 Macrophages are characterized by low MHCII and high CD206. In contrast, anti-tumor M1 Macrophages are characterized by high MHCII and low CD206. CT26 tumors from Formula C or vehicle-treated Balb/C mice with CT26 mouse colorectal cancer were analyzed for MHCII (FIG. 6B) and CD206 (FIG. 6C) levels 20 days after treatment started.

[9] = high dose (40%) group, trending also at lower doses
[10] = topical 2.5%, 5% ointment or 40% solution, 50-day treatment phase

Compound	percentage of live cells ([1]; stimulated splenocytes, 24 hours treatment, ghost dye)	tumor volume compared with untreated group ([2]; topical daily for 18 days, after day 11)	tumor growth ([2]; topical daily, C57Bl/6 mice, right ear, first 11 days)	average inflammation score ([3]; before the 18th day of treatment)	average inflammation score ([3]; by about the 15th day of treatment)	CD3+ T cells in skin versus vehicle-treated [4, 9]	Langerin+ dendritic cells in skin versus vehicle-treated [4, 9]	mast cells in skin (toluidine blue) versus vehicle-treated [4, 10]	overall inflammation (H&E staining) versus vehicle-treated [4, 10]	F4/80 general staining for macrophages ([4]; topical, 50-day treatment phase, data not shown)	IL-1β secretion [5]	IL-1β secretion ([6]; IFNγ then LPS, compound overnight, ELISA)	cell viability ([6]; even at high dosage)	tumor volume [7]	CD206 levels versus vehicle-treated [8]	MHCII levels versus vehicle-treated [8]	CD44 and CD62L expression (shift from effector to memory cells) versus vehicle-treated ([1]; anti-CD3e/anti-CD28 stimulated splenocytes, 24 hours treatment)	percentage of live cells ([1]; female, BALB/c, mouse, 24 h)
O=CC[C@@H](O)[C@H](O)[C@H](O)CO [Formula 2-DG, 2-deoxyglucose, reference compound]	Neither Formula C nor 2-DG treatment significantly affected the percentage of live cells	–	–	–	–	–	–	–	–	–	–	–	–	–	–	–	–	–
CC/C=C\CC1C(=O)CCC1CC(=O)Oc1cccc2cccnc12 (stereo not drawn) [Formula C]	–	significantly lower than the tumor volume in the untreated group	no tumor growth for 11 days	over 3	about 3	statistically-significant increase	statistically-significant increase	statistically significant, dose-related increase	without apparent difference	no change	induced IL-1β secretion	dose-dependently elicited IL-1β secretion	little effect on cell viability	decreased tumor volume	lower CD206 levels	higher MHCII levels	higher CD44 and higher CD62L expression	Neither Formula C nor 2-DG treatment significantly affected the percentage of live cells
